This is an account of results in PubChem BioAssay AID192 (DTP/NCI, 2004).

This experiment deals with BDF1 mice, B16 melanoma ip, median survival T/C. Briefly: NCI In Vivo Anticancer Drug Screen. Data for tumor model B16 Melanoma (intraperitoneal) in B6D2F1 (BDF1) mice. The settings on record: endpoint: median survival time, higher = longer survival. The essentials:
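In this screen, activity was judged from survival or tumor size in treated versus vehicle-treated tumor-bearing mice, reported as T/C.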

Where [1] appears, read: dose: 10.0 mg/kg/injection, schedule: Q01DX001 (ip), vehicle: water.
Where [2] appears, read: dose: 50.0 mg/kg/injection, schedule: Q01DX009 (ip), vehicle: Klucel (hydroxypropylcellulose) (HPC).
The mark [3] stands for this setting: dose: 100.0 mg/kg/injection, schedule: Q01DX009 (ip), vehicle: Klucel (hydroxypropylcellulose) (HPC).
[4] abbreviates: dose: 200.0 mg/kg/injection, schedule: Q01DX009 (ip), vehicle: Klucel (hydroxypropylcellulose) (HPC).
[5] abbreviates: dose: 1.0 mg/kg/injection, schedule: Q01DX009 (ip), vehicle: saline.
The mark [6] stands for this setting: dose: 2.0 mg/kg/injection, schedule: Q01DX009 (ip), vehicle: saline.
[7] abbreviates: dose: 25.0 mg/kg/injection, schedule: Q01DX009 (ip), vehicle: Klucel (hydroxypropylcellulose) (HPC).
Where [8] appears, read: dose: 400.0 mg/kg/injection, schedule: Q01DX009 (ip), vehicle: Klucel (hydroxypropylcellulose) (HPC).
[9] abbreviates: dose: 12.5 mg/kg/injection, schedule: Q01DX009 (ip), vehicle: saline with Tween-80.
Where [10] appears, read: dose: 25.0 mg/kg/injection, schedule: Q01DX009 (ip), vehicle: saline with Tween-80.
[11] abbreviates: dose: 50.0 mg/kg/injection, schedule: Q01DX009 (ip), vehicle: saline with Tween-80.

The structures appear in SMILES notation. Several values for one entry are separate records, joined by “and”; a condition that tells them apart may be missing. Equal values may be shown once. Toxic doses and inconclusive results are not listed.

Take `CC[C@@]1(O)C[C@H](OC2CC(N(C)C)C(OC3CC(O)C(OC4CC(O)C(O)C(C)O4)C(C)O3)C(C)O2)c2c(cc3c(c2O)C(=O)c2c(O)ccc(O)c2C3=O)[C@H]1C(=O)OC` (some centres not stated): the T/C by setting is: (dose: 0.03 mg/kg/injection, schedule: Q01DX001 (ip), vehicle: saline) 105 % of control; (dose: 0.05 mg/kg/injection, schedule: Q01DX001 (ip), vehicle: saline) 118 % of control; (dose: 0.1 mg/kg/injection, schedule: Q01DX001 (ip), vehicle: saline) 119 % of control; (dose: 0.25 mg/kg/injection, schedule: Q01DX009 (ip), vehicle: other) 161 % of control; (dose: 0.5 mg/kg/injection, schedule: Q01DX009 (ip), vehicle: other) 161 % of control; (dose: 0.8 mg/kg/injection, schedule: Q01DX001 (ip), vehicle: saline) 163 % of control. In addition, the T/C runs as follows: (dose: 1.0 mg/kg/injection, schedule: Q01DX009 (ip), vehicle: alcohol) 210 % of control; (dose: 1.0 mg/kg/injection, schedule: Q01DX009 (ip), vehicle: other) 188 % of control; (dose: 1.6 mg/kg/injection, schedule: Q01DX001 (ip), vehicle: saline) 168 % of control; (dose: 2.0 mg/kg/injection, schedule: Q01DX009 (ip), vehicle: alcohol) 216 % of control; (dose: 2.16 mg/kg/injection, schedule: Q01DX001 (ip), vehicle: water) 106 % of control; (dose: 3.6 mg/kg/injection, schedule: Q01DX001 (ip), vehicle: water) 97 % of control. For the same compound, the T/C (dose: 6.0 mg/kg/injection, schedule: Q01DX001 (ip), vehicle: water) is 100 % of control and the T/C under setting [1] is 89 % of control.
`CC[C@@H]1C[C@@H]2CN3CCc4c([nH]c5ccc(OC)cc45)C(C(=O)OC)(C2)C13`: the T/C runs as follows: under setting [2], 102 % of control; under setting [3], 106 % of control; under setting [4], 111 % of control.
Consider `CC1CCCN(C)C1` (configuration not stated), for which the T/C was 117 % of control under setting [2] and 120 % of control under setting [3].
For `c1ccc2cc3c(ccc4ccccc43)cc2c1`, the T/C runs as follows: (dose: 50.0 mg/kg/injection, schedule: Q01DX009 (ip), vehicle: distilled water + Tween-80) 109 % of control; (dose: 100.0 mg/kg/injection, schedule: Q01DX009 (ip), vehicle: distilled water + Tween-80) 103 % of control; (dose: 200.0 mg/kg/injection, schedule: Q01DX009 (ip), vehicle: distilled water + Tween-80) 100 % of control.
For the compound `CCC(=O)OCC(=O)[C@]1(O)Cc2c(O)c3c(c(O)c2[C@@H](OC2CC(N)C(O)C(C)O2)C1)C(=O)c1c(OC)cccc1C3=O` (some centres not stated), the T/C runs as follows: (dose: 0.25 mg/kg/injection, schedule: Q01DX009 (ip), vehicle: saline) 188 % of control; (dose: 0.5 mg/kg/injection, schedule: Q01DX009 (ip), vehicle: saline) 175 % of control; under setting [5], 169 % of control and 195 % of control; under setting [6], 177 % of control and 260 % of control.
On to `CCCNCCN`, for which the T/C by setting is: (dose: 25.0 mg/kg/injection, schedule: Q01DX009 (ip), vehicle: saline) 109 % of control; (dose: 50.0 mg/kg/injection, schedule: Q01DX009 (ip), vehicle: saline) 116 % of control; (dose: 100.0 mg/kg/injection, schedule: Q01DX009 (ip), vehicle: saline) 96 % of control.
For `CC1NC(=O)C2Cc3ccc(O)c(c3)Oc3ccc(cc3)C(O)C(C(=O)N2C)N(C)C(=O)C(C)NC(=O)C(Cc2ccc(O)cc2)N(C)C(=O)C(C)NC1=O` (configuration not stated), the T/C (dose: 1.0 mg/kg/injection, schedule: Q01DX009 (ip), vehicle: saline with Tween-80) was 97 % of control; the T/C (dose: 2.0 mg/kg/injection, schedule: Q01DX009 (ip), vehicle: saline with Tween-80) is 91 % of control; the T/C (dose: 4.0 mg/kg/injection, schedule: Q01DX009 (ip), vehicle: saline with Tween-80) was 99 % of control; the T/C (dose: 8.0 mg/kg/injection, schedule: Q01DX009 (ip), vehicle: saline with Tween-80) was 96 % of control; the T/C (dose: 16.0 mg/kg/injection, schedule: Q01DX009 (ip), vehicle: saline with Tween-80) is 94 % of control.
For the compound `C/C=C(/C(=O)NC(N)=O)C(C)C`, the T/C is 100 % of control under setting [7]; 105 % of control under setting [2]; 105 % of control under setting [3]; 94 % of control under setting [4]; 97 % of control under setting [8].
For `CS(=O)(=O)Nc1ccc(Nc2c3ccccc3nc3cc(Cl)ccc23)cc1`, the T/C is, setting by setting: (dose: 3.0 mg/kg/injection, schedule: Q01DX009 (ip), vehicle: saline with Tween-80) 152 % of control; (dose: 37.5 mg/kg/injection, schedule: Q01DX001 (ip), vehicle: saline sonified) 169 % of control; (dose: 75.0 mg/kg/injection, schedule: Q01DX001 (ip), vehicle: saline sonified) 152 % of control.
Consider `Cc1n(CC(C)C)c2c([n+]1C)C(=O)c1ccccc1C2=O`, for which the T/C was 90 % of control under setting [5] and 87 % of control under setting [6].
Take `CN=C(N)N/N=C(\C)c1ccc2oc3ccc(/C(C)=N/NC(N)=NC)cc3c2c1`: the T/C is 106 % of control under setting [9], 113 % of control under setting [10] and 102 % of control under setting [11].
As to `Cc1cc(C)c([I+]c2c(C)cc(C)cc2C)c(C)c1`, the T/C is 103 % of control (dose: 1.5 mg/kg/injection, schedule: Q01DX009 (ip), vehicle: suspension in saline); 91 % of control (dose: 3.0 mg/kg/injection, schedule: Q01DX009 (ip), vehicle: Klucel (hydroxypropylcellulose) (HPC)); 95 % of control (dose: 3.0 mg/kg/injection, schedule: Q01DX009 (ip), vehicle: suspension in saline); 91 % of control (dose: 6.0 mg/kg/injection, schedule: Q01DX009 (ip), vehicle: Klucel (hydroxypropylcellulose) (HPC)); 100 % of control (dose: 6.0 mg/kg/injection, schedule: Q01DX009 (ip), vehicle: suspension in saline).
With `COc1cc2c(c3c1c(=O)c1ccccc1n3C)C=CC(C)(C)O2`, the T/C is 102 % of control under setting [10] and 107 % of control under setting [11].
As for `CCCCCCCCCCCCCCCCCCNC(=O)Oc1ccc(Cl)c(C)c1`, the T/C is, setting by setting: (dose: 100.0 mg/kg/injection, schedule: Q04DX003 (ip), vehicle: gum acacia) 88 % of control; (dose: 200.0 mg/kg/injection, schedule: Q04DX003 (ip), vehicle: gum acacia) 90 % of control.
Regarding `COc1cccc2c1C(=O)c1c(O)c3c(c(O)c1C2=O)CC(O)(C(C)=O)CC3OC1CC(NC(=O)C(CCCCN)NC(=O)C2CCCN2)C(O)C(C)O1` (configuration not stated), the T/C under setting [1] was 117 % of control; the T/C (dose: 20.0 mg/kg/injection, schedule: Q01DX001 (ip), vehicle: water) was 123 % of control; the T/C (dose: 40.0 mg/kg/injection, schedule: Q01DX001 (ip), vehicle: water) is 158 % of control; the T/C (dose: 80.0 mg/kg/injection, schedule: Q01DX001 (ip), vehicle: water) is 191 % of control.
For `C1=NC(c2ccccn2)=NNC(c2ccccn2)=C1c1ccccc1`, the T/C is, setting by setting: under setting [7], 100 % of control; under setting [2], 101 % of control; under setting [3], 86 % of control.
Take `CCCCC(CC)COP(=O)(CC(CC)CCCC)OCC(CC)CCCC` (configuration not stated): the T/C is, setting by setting: (dose: 6.25 mg/kg/injection, schedule: Q01DX009 (ip), vehicle: saline with Tween-80) 94 % of control; (dose: 6.25 mg/kg/injection, schedule: Q04DX003 (ip), vehicle: saline) 107 % of control; (dose: 8.0 mg/kg/injection, schedule: Q04DX003 (ip), vehicle: saline with Tween-80) 102 % of control; (dose: 12.0 mg/kg/injection, schedule: Q04DX003 (ip), vehicle: saline with Tween-80) 97 % of control; under setting [9], 89 % of control; (dose: 18.0 mg/kg/injection, schedule: Q04DX003 (ip), vehicle: saline with Tween-80) 100 % of control. Moreover, the T/C by setting is: under setting [10], 86 % of control; (dose: 25.0 mg/kg/injection, schedule: Q04DX003 (ip), vehicle: saline) 123 % of control.
For `CSc1nc(=O)[nH]nc1SCc1ccccc1`, the T/C is 98 % of control under setting [2], 105 % of control under setting [3], 98 % of control under setting [4] and 110 % of control under setting [8].
Turning to `CCCCOP(=O)(CCl)OCCCC`, the T/C is, setting by setting: under setting [2], 97 % of control; under setting [3], 86 % of control.
